In US20220296600A1, “USE OF A COMPOSITION COMPRISING 3,6,7-TRIMETHYLLUMAZINE FOR PREVENTING, AMELIORATING OR TREATING MMP-9 ASSOCIATED CONDITIONS AND INFLAMMATION” (COMVITA LIMITED, priority 2019, published 2022):

Experiments:
[1] = system: MMP-9 secretion in differentiated THP-1 cells; test: LPS induced MMP-9 secretion in differentiated THP-1 cells (ELISA); assay type: cell-based, human; conditions: LPS 1 μg/mL; for reduction of MMP-9 secretion: 24 hours
Experimental: THP-1 cells (ATCC, ATCTIB202) were grown in RPMI-1640 (Gibco, 11875093)+0.05 mM 2-mercaptoethanol+10% fetal calf serum (FCS)+1% pen-strep. For experiments, the cells were cultured in RPMI-1640 medium with 10% fetal bovine serum (FBS) only.
THP-1 monocyte cells were seeded at a density of 2.5×10^5 cells/ml in 96-well plates and differentiated into macrophages using 10 ng/ml of phorbol 12-myristate 13-acetate (PMA) (Bergin et al) (Sigma, P1585-1MG, Lot #SLBX889, 100% purity) for 72 hours. PMA media was then removed from the differentiated THP-1 cells, the cells were then washed once in RPMI-1640 media and then left to rest for ˜5 hours.
The differentiated THP-1 cells were stimulated with LPS from E. coli […] (Sigma, L6529; Lot#037K4068). LPS tested at a concentration of 1 μg/ml (Kong et al). The cells were incubated with LPS alone or in combination with 3,6,7-trimethyllumazine (received from University of Auckland and diluted in RPMI-1640 at a stock concentration of 1 mg/ml, stock was stored in fridge for 2 days before use) at a concentration range between 2.5-40 μg/ml. 6 μM Azithromycin (Sigma, Cat #75199-25MG, Lot#069M4826V) was used as a positive control (Vandooren et al). The cells were then incubated with the different treatments for 24 hours (Kong et al). After 24 hours, the cell culture media was collected and measured for MMP-9 concentration using MMP-9 ELISA (R&D systems, RDSDY91105 lot #P239459 and DY008 Lot #P239900). The cells were then incubated with WST-1 for cell viability.
This human MMP-9 assay measures the 92 kDa Pro-MMP-9 and the 82 kDa active MMP-9. […] This assay also recognizes human MMP-9 when complexed to Lipocalin-2/NGAL, isolated from human source material.
In order to better capture the variability, each treatment was done at least in triplicate in each plate (2 plates). Media from the triplicate wells were pooled and analysed in duplicates for the MMP-9 ELISA. A student's test was performed in excel between media with LPS and the different treatments.

[2] = biological target: T1, recombinant MMP-9 enzyme (Homo sapiens, UniProt P14780); test: MMP-9 inhibitor screening assay (fluorometric); assay type: biochemical
T1 construct: purchased Abcam (Melbourne, Australia)
Experimental: The MMP-9 inhibitor screening assay (fluorometric) kits were purchased from Abcam (Melbourne, Australia). The fluorometric kit contains the recombinant MMP-9 enzyme, MMP inhibitor NNGH (N-isobutyl-N-[4-methoxyphenylsulfonyl]glycyl hydroxamic acid), MMP fluorogenic substrate solubilised in DMSO, the fluorometric assay buffer and 96-well clear microplate.
Inhibitory activity on MMP-9 was assessed using the commercial MMP-9 inhibitor screening assay kit. MMP-9 activity was expressed as a change in fluorescence intensity measured using SpectraMax iD3 multi-mode microplate reader (Molecular Devices, San Jose, USA).
The assay employs a FRET-tagged (fluorescence resonance energy transfer) substrate, which can be hydrolysed by MMP-9 at a specific site (Abcam, 2018). The cleavage of the FRET substrate releases the quenched fluorescent Mca (7- methoxycoumarin-4-yl)-acetyl group (Abcam, 2018). The kit employs a quenched fluorogenic substrate Mca-Pro-Leu-Gly-Leu-Dpa-Ala-Arg-NH2, where the Mca fluorescence is quenched by Dpa until cleavage by MMPs. The amount of fluorescent product yielded by MMP-9 can be detected fluorometrically and it is proportional to the enzyme activity. Fluorescence were measured at ex320 nm-em395 nm to minimise fluorescence interference from 3,6,7-trimethyllumazine at ex330 nm-em470 nm. Assays were performed on a 96-well clear microplate included in the kit with a final reaction volume of 100 µL. Before adding the substrate, MMP-9 enzymes were incubated with testing samples and inhibitor control for 60 min at 37° C. The fluorescent substrate was added into each well prior to the assay to initiate the reaction. The assay was allowed to run for 20 min and the temperature in the reaction chamber was set to 37° C.
Testing samples were prepared comprising 3,6,7-trimethyllumazine prepared as outlined above.
A positive control was included with only MMP-9 and the fluorescent substrate, used as a reference to calculate the percentage inhibition. A broad spectrum MMP inhibitor NNGH was included as the negative control. […]

[3] = biological target: T1, recombinant MMP-9 enzyme; test: MMP-9 inhibitor screening assay (colorimetric); assay type: biochemical; conditions: read-out: percentage inhibition of MMP-9
Text: The MMP-9 inhibitor screening assay (colorimetric) kits were purchased from Abcam (Melbourne, Australia). The kit contains the recombinant MMP-9 enzyme, MMP inhibitor NNGH, MMP chromogenic substrate, the colorimetric assay buffer and 96-well clear microplate.
The colorimetric kit uses a thiopeptide as a chromogenic substrate (Ac-PLG- [2-mercapto-4-methyl-pentanoyl]-LG-[…]), which can be hydrolysed by MMPs to produce a sulfhydryl group. This intermediate product further reacts with DTNB [5,5′-dithiobis(2-nitrobenzoic acid), Ellman's reagent] to form 2-nitro-5-thiobenzoic acid, which can be detected by absorbance at 412 nm. The change in absorbance was measured using the SpectraMax iD3 multi-mode microplate reader (Molecular Devices, San Jose, USA). The assays are performed on a convenient 96-wells microplate with a final reaction volume of 100 μL. Prior to the assay, all testing samples and inhibitor controls were incubated with MMP-9 for 60 min at 37° C. […] The absorbance was measured at 1 min intervals during the first 20 min, then 10 min intervals till the end of assay.
Recombinant MMP-9 and the chromogenic substrate were used as the positive control to represent 100% enzyme activity. […] A range of 3,6,7-trimethyllumazine concentrations were diluted with the colorimetric assay buffer to measure the absorbance of the reaction product.

[4] = system: active MMP-9; test: Gelatin gel zymography, active MMP-9 band; assay type: biochemical; conditions: active MMP-9 band (~37 kDa); supplemented developing buffer
Experimental: (§1) Novex™ 10% Zymogram Plus (Gelatin) Protein Gels (15 wells) were purchased from Thermo Fisher Scientific Inc. (Auckland, New Zealand). All chemicals required for the zymogram analysis were also purchased from Thermo Fisher, these include Novex™ Sharp Pre-stained Protein Standard, Novex Tris-Glycine SDS sample buffer, Novex Tris-Glycine SDS running buffer, Novex Zymogram renaturing buffer and Novex Zymogram developing buffer. […] Gelatin gel zymography was performed as an independent technique to confirm the inhibition of MMP-9 from 3,6,7-trimethyllumazine. This technique uses a non-reducing SDS-PAGE (sodium dodecyl sulfate polyacrylamide gel electrophoresis) gel embedded with gelatin. Proteins are migrated and separated during electrophoresis. The SDS is removed after electrophoresis and the gel is then incubated with essential cofactors required for enzymatic activity. The embedded gelatin can be digested by MMP-9, resulting in clear bands on a dark blue background after staining with Coomassie blue dyes. The gelatinase activity is represented by band densitometry, which can be assessed with image analysis software. […]
(§2) After incubation, the gelatin gel was rinsed with water for three times (5 min each) under gentle agitation. […] MMP-9 activities were analysed using densitometry on ImageJ Version 1.52a.

[5] = system: inactive MMP-9 (pro-MMP-9); test: Gelatin gel zymography, inactive (pro-)MMP-9 band; assay type: biochemical; conditions: inactive MMP-9 band; supplemented developing buffer
Experimental: as §1, §2

[6] = Simulated gastrointestinal digestion (SGF then SIF), 3,6,7-trimethyllumazine retention by HPLC; assay type: in vitro ADME; conditions: from four Manuka honey samples; 2 h gastric plus 4 h intestinal digestion
Experimental: The simulated gastrointestinal digestion was carried out using a static model. The simulated gastric fluid (SGF) and the simulated intestinal fluid (SIF) were prepared in accordance with a global consensus protocol (Minekus et al 2014). The SGF has a pH 3 to mimic the fed-state of the stomach. When mixed with Manuka honey (or a honey solution), the final mixture contains 2000 U/mL of pepsin. The SIF has pH 7 to mimic the fed-state of the small intestine, containing 2 mg/mL of pancreatin (8 x USP, or based on a protease activity of 200 U/mL) and 20 mM of porcine bile extract before use.
In the simulated gastric digestion, 2 g of Manuka honey was incubated in 2 mL of SGF at 37° C. under 95 rpm shaking for a period of 2 h (triplicates). At selected time points (0, 30, 60 and 120 min), a predetermined volume (0.1 mL) of the mixture was withdrawn for 3,6,7-trimethyllumazine analysis. […]
The gastric and intestinal digesta for 3,6,7-trimethyllumazine analysis was treated to remove insoluble fractions (e.g. pancreatin) before HPLC analysis. […] The amount of 3,6,7-trimethyllumazine at different time points was analysed using a reverse-phase HPLC system, which has been previously used to analyse 3,6,7-trimethyllumazine and leptosperin as reported in the literature (Bin Lin et al 2017). […] The signal of 3,6,7-trimethyllumazine was detected at 320 nm.

[7] = system: differentiated THP-1 cells; test: Cell viability (WST-1); assay type: cell-based; conditions: 40 μg/mL
Experimental: To measure cytotoxicity of 3,6,7-trimethyllumazine at different doses, 2-(4-lodophenyl)-3-(4-nitrophenyl)-5-(2,4-disulfophenyl)-2H-tetrazolium, monosodium salt (WST-1) (Roche, 11644807001, Lot #45255800) was used. WST-1 is a cell proliferation reagent for measurement of cellular proliferation, viability, and cytotoxicity using a colorimetric assay (Gosert (2011); Peskin (2000)).
After incubation, a portion of the culture media was taken and stored for MMP-9 secretion testing using ELISA. The remaining media in the plates was then removed and 100 μl of WST-1 in RPMI-1640 media (1:10 dilution) was added to each cell well and incubated at 37° C. for a further 4 hours. The plates were then read using a plate reader at wavelength of 450 nm. Cytotoxicity was calculated as follows: • [WST-1 score for each sample/WST-1 score for the control]×100 • A WST-1 score below 80% will be considered cytotoxic.

T1 sequence (P14780 94-707): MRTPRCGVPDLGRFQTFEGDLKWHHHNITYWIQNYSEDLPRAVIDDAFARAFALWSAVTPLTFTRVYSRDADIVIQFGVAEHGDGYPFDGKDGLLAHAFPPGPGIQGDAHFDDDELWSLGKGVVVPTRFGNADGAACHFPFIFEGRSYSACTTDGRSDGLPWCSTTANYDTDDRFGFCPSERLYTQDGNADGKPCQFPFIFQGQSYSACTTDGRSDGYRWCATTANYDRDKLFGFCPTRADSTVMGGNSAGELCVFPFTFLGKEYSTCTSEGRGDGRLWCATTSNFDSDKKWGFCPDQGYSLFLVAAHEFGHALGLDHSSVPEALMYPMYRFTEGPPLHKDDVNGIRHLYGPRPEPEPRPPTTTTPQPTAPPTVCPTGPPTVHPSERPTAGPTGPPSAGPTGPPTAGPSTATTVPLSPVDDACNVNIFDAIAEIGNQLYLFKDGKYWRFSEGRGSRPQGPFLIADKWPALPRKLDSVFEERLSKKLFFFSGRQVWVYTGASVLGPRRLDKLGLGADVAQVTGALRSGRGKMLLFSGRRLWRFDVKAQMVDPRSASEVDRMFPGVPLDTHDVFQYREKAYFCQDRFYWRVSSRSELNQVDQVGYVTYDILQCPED

CC[C@H]1OC(=O)[C@H](C)[C@@H](O[C@H]2C[C@@](C)(OC)[C@@H](O)[C@H](C)O2)[C@H](C)[C@@H](O[C@@H]2O[C@H](C)C[C@H](N(C)C)[C@H]2O)[C@](C)(O)C[C@@H](C)CN(C)[C@H](C)[C@@H](O)[C@]1(C)O [Azithromycin, reference compound]
effect on MMP-9 secretion ([1]; 6 μM positive control, absolute values, P=0.00): inhibits mmp-9 secretion

Cc1nc2[nH]c(=O)n(C)c(=O)c2nc1C [3,6,7-trimethyllumazine]
inhibition at 2.5 µg/mL ([2]; 2.5 μg/ml, not significant (p>0.05), read-out: percentage inhibition of MMP-9 activity): 12%
IC50 ([2]; fluorometric, second-order polynomial fit of % inhibition vs concentration): 55.8 µM
inhibition at 40 µg/mL ([3]; 40 μg/ml): 10%
inhibition at 80 µg/mL ([3]; 80 μg/ml): 10%
percentage inhibition of gelatinase activity (densitometry) [4]: 31%
percentage inhibition of gelatinase activity (densitometry) [5]: 17%
initial 3,6,7-trimethyllumazine amount recovered in the digesta [6]: ~100%
reduction of MMP-9 secretion ([1]; 30 μg/mL): 23%
reduction of MMP-9 secretion ([1]; 40 μg/mL): 38%
WST-1 score (cell viability; below 80% considered cytotoxic) [7]: 79.8%

COc1ccc(S(=O)(=O)N(CC(=O)NO)CC(C)C)cc1 [NNGH, N-isobutyl-N-[4-methoxyphenylsulfonyl]glycyl hydroxamic acid, reference compound]
change in fluorescence intensity (MMP-9 activity) ([2]; NNGH inhibitor control): almost no change in fluorescence
